This is an account of results in patent publication US8394820B2, “N-azabicyclic carboxamide derivatives, preparation thereof and therapeutic use thereof” (Sanofi, priority 2008, dated 2013).

Structures are written as SMILES.

The target of the first data set is T1, TRPV1 receptor (Rattus norvegicus, UniProt O35433).
T1 construct: DRG neurones naturally express the TRPV1 receptor; endogenous in cells; host or cells: primary culture of newborn (1-day-old) rat dorsal root ganglion neurones
T1 sequence (O35433 whole entry): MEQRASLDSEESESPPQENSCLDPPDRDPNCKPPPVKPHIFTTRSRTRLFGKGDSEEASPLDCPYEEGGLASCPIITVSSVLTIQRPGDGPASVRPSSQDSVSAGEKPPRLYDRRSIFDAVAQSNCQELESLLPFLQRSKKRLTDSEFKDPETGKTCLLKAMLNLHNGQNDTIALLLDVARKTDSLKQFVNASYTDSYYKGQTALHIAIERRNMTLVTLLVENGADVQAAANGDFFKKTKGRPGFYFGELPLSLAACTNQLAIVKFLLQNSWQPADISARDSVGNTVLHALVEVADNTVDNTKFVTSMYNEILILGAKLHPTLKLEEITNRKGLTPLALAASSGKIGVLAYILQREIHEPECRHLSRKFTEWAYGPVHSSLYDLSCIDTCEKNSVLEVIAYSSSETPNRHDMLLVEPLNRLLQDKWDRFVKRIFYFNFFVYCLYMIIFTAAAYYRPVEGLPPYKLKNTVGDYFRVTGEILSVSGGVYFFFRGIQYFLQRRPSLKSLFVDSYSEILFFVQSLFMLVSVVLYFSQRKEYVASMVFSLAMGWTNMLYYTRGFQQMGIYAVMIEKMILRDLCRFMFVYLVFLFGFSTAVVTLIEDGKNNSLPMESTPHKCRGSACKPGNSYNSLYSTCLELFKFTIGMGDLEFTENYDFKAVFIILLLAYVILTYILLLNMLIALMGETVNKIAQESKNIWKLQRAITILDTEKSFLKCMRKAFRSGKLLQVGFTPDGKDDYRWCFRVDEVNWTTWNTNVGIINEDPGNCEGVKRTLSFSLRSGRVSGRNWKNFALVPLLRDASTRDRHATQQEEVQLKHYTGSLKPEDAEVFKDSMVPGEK
The data set is described as follows: Test of inhibition of the current induced with capsaicin on rat DRGs (whole-cell patch-clamp). The class given is cell-based. The following applies: compound at 1 nM; inhibition of control capsaicin response; primary culture of newborn rat DRG neurones. On the procedure: Test of Inhibition of the Current Induced with Capsaicin on Rat DRGs • Primary culture of rat dorsal root ganglion (DRG) cells:
DRG neurones naturally express the TRPV1 receptor.
The primary cultures of newborn rat DRGs are prepared using 1-day-old rats. Briefly, after dissection, the ganglions are trypsinized and the cells dissociated by mechanical trituration. The cells are resuspended in an Eagle basal culture medium containing 10% foetal calf serum, 25 mM KCl, 2 mM glutamine, 100 μg/ml gentamicin and 50 ng/ml of NGF, and then deposited on glass slides coated with laminin (0.25×10^6 cells per slide), which are then placed in Corning 12-well dishes. The cells are incubated at 37° C. in a humidified atmosphere containing 5% CO2 and 95% air. […]
The measuring chambers (volume 800 μl) containing the cell preparation are placed on the platform of an inverted microscope (Olympus IMT2) equipped with Hoffman optics (Modulation Contrast, New York) and observed at a magnification of 400×. […] The overall currents (membrane potential set at −60 mV) are recorded with an Axopatch 1D amplifier (Axon Instruments, Foster City, Calif.), connected to a PC running the Pclamp8 software (Axon Instrument). The current plots are recorded on paper and simultaneously digitized (sampling frequency 15 to 25 Hz) and acquired on the hard drive of the PC. […]
`Cc1nc2cc(NC(=O)c3cc4cc(F)ccc4n3Cc3cccc(F)c3)ccn2c1C` [Compound 1, N-(2,3-Dimethylimidazo[1,2-a]pyrid-7-yl)-5-fluoro-1-[(3-fluorophenyl)methyl]-1H-indole-2-carboxamide]: the inhibition at 0.001 µM stood at 81.5%.

Still in this data set, the particulars now being: compound at 100 nM; inhibition of control capsaicin response; primary culture of newborn rat DRG neurones.
Compound `Cc1cc2ncc(NC(=O)c3cc4cc(F)ccc4n3Cc3cccc(F)c3)cn2n1` [Compound 20, N-(2-Methylpyrazolo[1,5-a]pyrimidin-6-yl)-5-fluoro-1-[(3-fluorophenyl)methyl]-1H-indole-2-carboxamide] gave an inhibition at 0.1 µM of 80%.

Tested on in the next data set: not given
Assay: not given
Details: not given
For the compound `Cc1nc2cc(NC(=O)c3cc4cc(F)ccc4n3Cc3cccc(F)c3)ccn2c1-c1ccccc1`, the melting point lay within 305 to 307 °C.

Compound `O=C(Nc1ccn2cc(-c3cccs3)nc2c1)c1cc2cc(F)ccc2n1Cc1cccc(F)c1` showed a melting point of 259 to 260 °C.

`CC(C)(C)c1cn2ccc(NC(=O)c3cc4cc(F)ccc4n3Cc3cccc(F)c3)cc2n1` yielded a melting point of 327 to 328 °C.

As for `Cc1nc2cc(NC(=O)c3cc4cc(C(F)(F)F)ccc4n3Cc3cccc(F)c3)ccn2c1C`, the melting point is 280 to 281 °C.

`CCc1cn2ccc(NC(=O)c3cc4cc(C(F)(F)F)cnc4n3Cc3cccc(F)c3)cc2n1`: the melting point was in the range of 264 to 265 °C.

With `Cc1nc2cc(NC(=O)c3cc4cc(C(F)(F)F)cnc4n3Cc3cccc(F)c3)ccn2c1C`, the melting point lay in the range of 287 to 288 °C.

In turn, `O=C(Nc1ccn2cc(CO)nc2c1)c1cc2cc(C(F)(F)F)ccc2n1Cc1cccc(F)c1` yielded a melting point of 254 to 255 °C.

In turn, `O=C(Nc1ccn2cc(CO)nc2c1)c1cc2cc(C(F)(F)F)cnc2n1Cc1cccc(F)c1` yielded a melting point of 238 to 240 °C.

The compound `Cc1cn2ccc(NC(=O)c3cc4cc(F)ccc4n3Cc3cccc(F)c3)cc2n1` yielded a melting point of 267 to 268 °C.

In turn, `CCOC(=O)c1cn2nc(NC(=O)c3cc4cc(F)ccc4n3Cc3cccc(F)c3)ccc2n1` displayed a melting point of 267 to 268 °C.

As for `CCOC(=O)c1cn2cc(NC(=O)c3cc4cc(F)ccc4n3Cc3cccc(F)c3)ccc2n1`, the melting point was in the range of 242 to 245 °C.

With `Cc1cn2cc(NC(=O)c3cc4cc(F)ccc4n3Cc3cccc(F)c3)ccc2n1`, the melting point was in the range of 200 to 203 °C.

On to `O=C(Nc1ccc2nc(CO)cn2c1)c1cc2cc(F)ccc2n1Cc1cccc(F)c1`, for which the melting point was in the range of 247 to 249 °C.

In turn, `CCc1cn2cc(NC(=O)c3cc4cc(F)ccc4n3Cc3cccc(F)c3)ccc2n1` returned a melting point of 278 to 279 °C.

Compound `O=C(Nc1ccc2nc(-c3cccs3)cn2c1)c1cc2cc(F)ccc2n1Cc1cccc(F)c1` yielded a melting point of 316 to 318 °C.

In turn, `CC(C)(C)c1cn2cc(NC(=O)c3cc4cc(F)ccc4n3Cc3cccc(F)c3)ccc2n1` displayed a melting point of 190 to 192 °C.

With `COCc1cn2ccc(NC(=O)c3cc4cc(F)ccc4n3Cc3cccc(F)c3)cc2n1`, the melting point was in the range of 215 to 216 °C.

The compound `O=C(Nc1ccn2cc(CO)nc2c1)c1cc2cc(F)ccc2n1Cc1cccc(F)c1` showed a melting point of 244 to 245 °C.

Consider `Cc1cc2ncc(NC(=O)c3cc4cc(F)ccc4n3Cc3cccc(F)c3)cn2n1` [Compound 20, N-(2-Methylpyrazolo[1,5-a]pyrimidin-6-yl)-5-fluoro-1-[(3-fluorophenyl)methyl]-1H-indole-2-carboxamide], for which the melting point lay within 267 to 268 °C.
